This assay deals with human VMAT2 (Homo sapiens, UniProt Q05940). The assay is described as follows: [3H]-α-DHTBZ radioligand binding in vesicles from human VMAT2-transfected HEK293 cells. The conditions noted are these: read-out: IC50 [3H]-α-DHTBZ binding.
human VMAT2, sequence (Q05940 whole entry): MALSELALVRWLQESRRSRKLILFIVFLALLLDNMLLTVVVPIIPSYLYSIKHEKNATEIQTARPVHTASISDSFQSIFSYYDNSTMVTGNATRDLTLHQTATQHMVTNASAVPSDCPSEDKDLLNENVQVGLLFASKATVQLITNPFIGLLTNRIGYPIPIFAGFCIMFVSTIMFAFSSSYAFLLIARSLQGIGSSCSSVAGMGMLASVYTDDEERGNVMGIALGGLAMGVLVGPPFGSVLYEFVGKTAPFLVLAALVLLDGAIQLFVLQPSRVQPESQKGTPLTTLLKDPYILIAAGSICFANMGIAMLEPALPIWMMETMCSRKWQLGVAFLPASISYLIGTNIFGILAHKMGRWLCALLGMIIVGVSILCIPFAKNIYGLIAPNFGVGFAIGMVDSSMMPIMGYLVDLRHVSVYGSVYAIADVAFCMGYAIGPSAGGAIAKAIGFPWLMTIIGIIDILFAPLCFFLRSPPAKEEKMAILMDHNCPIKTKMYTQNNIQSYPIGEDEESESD

The term IC50 denotes the point on the concentration scale where inhibition reaches its midpoint. In the case of `COc1cc2c(cc1OC)C1CC(=O)C(CC(C)C)CN1CC2` (stereo not shown) [TBZ, Tetrabenazine], the IC50 is 19.2 nM.

For the origin of these results see paper PMC13226201 (Frontiers in Pharmacology, 2026).
